Source: patent publication US20210223233A1, “Mitochondrial Conductance Inhibitors and Methods of Use Thereof” (The Regents of the University of California, priority 2018, published 2021)
Where two headings read alike, the source gives them in different places.

Assays:
[1] = system: inner mitochondrial membrane nonselective monovalent cation conductance (NMCC); assay type: biochemical, mouse
Method: The homogenate was centrifuged at 700 g for 5-10 min to pellet nuclei and unbroken cells. For some tissues, the first nuclear pellet was resuspended in the same solution and homogenized again to increase the yield of mitochondria. Mitochondria were collected by centrifugation of the supernatant at 8,500 g for 10 min. Mitochondria were suspended in a solution containing 140 mM sucrose, 440 mM D-mannitol, 5 mM HEPES, and 1 mM EGTA (pH adjusted to 7.2 with KOH), and then subjected to a French press at 2,000 psi to rupture the outer mitochondrial membrane (OMNI) and release the inner mitochondrial membrane (IMM) to form mitoplasts. Mitoplasts were pelleted at 10,500 g for 15 min and resuspended for storage in […] of solution containing 750 mM KCl, 100 mM HEPES and 1 mM EGTA (pH adjusted to 7.2 with KOH) to further release the IMM from the OMNI, see FIG. 1A. […] Mitochondria and mitoplasts were prepared at 0-4° C. and stored on ice for up to 5 h. Tissues were isolated from a mitochondrial calcium uniporter (MCU) knock-out mouse unless otherwise indicated.
A glass pipette recording electrode was used to form a gigaohm seal with the IMM in a bath solution containing 150 mM KCl, 10 mM HEPES, and 1 mM EGTA, pH 7.2 (adjusted with KOH). Capacitive transients were completely compensated right after the seal was formed. The patch of the IMM attached to the glass pipette recording electrode was then ruptured by high-amplitude voltage pulses (200-500 mV).
Currents were recorded using an Axopatch 200B amplifier (Molecular Devices). The current was dropped to −160 mV and then ramped up for 850 mS to +80 mV. All voltages indicated correspond to the mitochondrial matrix in respect to the bath (cytosol). Mitoplast conductance was normalized to the membrane capacitance (Cm) in all tissues examined. Current amplitudes for histograms were measured within 5 mS after stepping the membrane from 0 to −160 mV and were normalized to the total current. Whole-mitoplast control currents were recorded in a bath solution containing 150 mM HEPES, 1.5 mM EGTA, pH 7.0 adjusted with Tris base, osmolarity to 300 mmol/kg with sucrose.
For the assay, the pipette solution contained 110 mM Na-gluconate, 5 mM EGTA, 40 mM HEPES, 5 mM EDTA, and 1 mM NaCl and was tonicity adjusted to ˜350-370 mmol/kg with sucrose and pH adjusted to pH 7 with 1 M NaOH. The control bath solution contained 110 mM Na-gluconate, and 40 mM HEPES and was pH adjusted to pH 7 with 1 M NaOH. When assaying for the effect Ca^2+, 5 mM CaCl2) was added to the described bath solution.
For the DCCD assay, mitoplasts were prepared from wild-type C56BL/6 mice. The pipette solution contained 150 mM tetramethylammonium (TMA) hydroxide, 1.5 mM EGTA, 2 mM MgCl2, and 150 mM HEPES, was tonicity adjusted to ˜450 mmol/kg with sucrose and pH adjusted to pH 7 with D Gluconic Acid, and the bath solution contained 150 mM KCl, 1.5 mM EGTA, and 40 mM HEPES, and was pH adjusted to pH 7.2 with 1 M KOH. When assaying for DCCD effect, 10 μM DCCD was added to the described bath solution. […],
When assaying for inhibitor effect, […] or 5 μM CATR was added to the described bath solution.
For the Na^+ assays, the pipette solution contained 110 mM Na-gluconate, 5 mM EGTA, 40 mM HEPES, 5 mM EDTA, and 1 mM NaCl and was tonicity adjusted to ˜350-370 mmol/kg with sucrose and pH adjusted to pH 7 with 1 M NaOH. The bath solution contained 110 mM Na-gluconate, 5 mM EGTA, 40 mM HEPES, and 5 mM EDTA and was pH adjusted to pH 7 with 1 M NaOH.

[2] = log octanol/water partition coefficient; source not stated; cited from earlier work
[3] = 10 μM antimycin in bath, 125 mM K-gluconate, pH 7

Compound: N/C(=N\C(=O)c1nc(Cl)c(NCc2ccc(I)cc2)nc1N)NCCCCc1ccccc1 [5m, (E)-3-amino-N-(amino((4-phenylbutyl)amino)methylene)-6-chloro-5-((4-iodobenzyl)amino)pyrazine-2-carboxamide]
- effect on monovalent cation conductance ([1]; 1 μM 5m in bath, 125 mM K-gluconate, pH 7): almost completely inhibited

Compound: CCCCCCCCN/C(N)=N/C(=O)c1nc(Cl)c(NCc2ccc(I)cc2)nc1N [5o, (E)-3-amino-N-(amino(octylamino)methylene)-6-chloro-5-((4-iodobenzyl)amino)pyrazine-2-carboxamide]
- effect on monovalent cation conductance ([1]; 1 μM 5o in bath, 125 mM K-gluconate, pH 7): almost completely inhibited

Compound: CN(CCCCCCc1ccccc1)CCCCNC(=O)c1nc(Cl)c(NCc2ccc(Cl)cc2)nc1N [AA6, 3-amino-6-chloro-5-((4-chlorobenzyl)amino)-N-(4-(methyl(6-phenylhexyl)amino)butyl)pyrazine-2-carboxamide]
- effect on monovalent cation conductance ([1]; 200 nM AA6 in bath, 125 mM K-gluconate, pH 7): almost completely inhibited

Compound: CCCCC/C=C\C/C=C\C/C=C\C/C=C\CCCC(=O)O [AA, arachidonic acid]
- effect on monovalent cation conductance ([1]; […] AA in bath, 125 mM K-gluconate, pH 7): little to no effect

Compound: C=C1[C@@H]2CC[C@H]3[C@]4(C)C[C@H](O[C@@H]5O[C@H](CO)[C@@H](OS(=O)(=O)O)[C@H](OS(=O)(=O)O)[C@H]5OC(=O)CC(C)C)CC(C(=O)O)(C(=O)O)[C@H]4CC[C@]3(C2)[C@H]1O [CATR, carboxyatractyloside]
- effect on monovalent cation conductance ([1]; 5 μM CATR in bath, 125 mM K-gluconate, pH 7): little to no effect

Compound: [Ca+2].[Cl-].[Cl-] [Ca^2+, CaCl2]
- effect on monovalent cation conductance ([1]; 5 mM CaCl2 added to bath, 110 mM Na-gluconate, no chelator in bath, pH 7): inhibited

Compound: C(=NC1CCCCC1)=NC1CCCCC1 [DCCD, dicyclohexylcarbodiimide]
- effect on monovalent cation conductance ([1]; 10 μM DCCD in bath, 150 mM KCl bath, TMA pipette, mitoplasts from wild-type C56BL/6 mice): little to no effect

Compound: CCN(c1nc(N)c(C(=O)NC(=N)N)nc1Cl)C(C)C [EIPA, 5-(N-ethyl-N-isopropyl)amiloride]
- Concentration [1]: 80 µM
- effect on monovalent cation conductance ([1]; K+ assay (110 mM K-gluconate, pH 7), 80 μM EIPA in bath): significantly and almost completely inhibited
- effect on monovalent cation conductance ([1]; Na+ assay (110 mM Na-gluconate, pH 7), 100 μM EIPA in bath): significantly and almost completely inhibited

Compound: C[n+]1ccc(-c2ccccc2)cc1 [MPP+, 1-methyl-4-phenylpyridinium]
- effect on monovalent cation conductance ([1]; 0.5 mM MPP+ in bath, 125 mM K-gluconate, pH 7): little to no effect

Compound: CN(C)C(=N)NC(=N)N [Metformin]
- Concentration [1]: 30000 µM
- effect on monovalent cation conductance ([1]; pH 7): almost completely inhibited

Compound: [H]/N=C(/N)N/C(=N/[H])NCCc1ccccc1 [Phenformin]
- Concentration [1]: 2000 µM
- effect on monovalent cation conductance ([1]; 1 mM phenformin in bath, 125 mM K-gluconate, pH 7): almost completely inhibited
- logP [2]: −0.83

Compound: [H]/N=C(\N/C(=N/[H])Nc1ccc(Cl)cc1)NC(C)C [Proguanil]
- Concentration [1]: 100 µM
- effect on monovalent cation conductance ([1]; 100 μM proguanil in bath, 125 mM K-gluconate, pH 7): almost completely inhibited
- logP [2]: 2.53

Compound: C=C(C)[C@H]1Cc2c(ccc3c2O[C@@H]2COc4cc(OC)c(OC)cc4[C@@H]2C3=O)O1 [Rotenone, rotenone]
- effect on monovalent cation conductance ([1]; 10 μM rotenone in bath, 110 mM Na-gluconate, pH 7): little to no effect

Compound: N/C(=N\C(=O)c1nc(Cl)c(N)nc1N)NCc1ccccc1 [benzamil]
- effect on monovalent cation conductance ([1]; 10 μM benzamil in bath, 125 mM K-gluconate, pH 8): little to no effect

Compound: CC(C)(C)c1ccc(CCOc2ncnc3ccccc23)cc1 [fenazaquin]
- effect on monovalent cation conductance ([1]; 10 μM fenazaquin in bath, 110 mM Na-gluconate, pH 7): little to no effect

Compound: Cc1nn(C)c(Oc2ccccc2)c1/C=N/OCc1ccc(C(=O)OC(C)(C)C)cc1 [fenipiroximate]
- effect on monovalent cation conductance ([1]; 0.5 μM fenipiroximate in bath, 125 mM K-gluconate, pH 7): little to no effect

Compound: CO/C(=C/C(N)=O)[C@H](C)[C@H](/C=C/c1csc(-c2csc([C@@H](C)/C=C/C=C/C(C)C)n2)n1)OC [myxothiazol]
- effect on monovalent cation conductance ([1]; 10 μM myxothiazol in bath, 125 mM K-gluconate, pH 7): little to no effect

Compound: CC[C@H]1/C=C/C=C/C[C@@H](C)[C@H](O)[C@@](C)(O)C(=O)[C@@H](C)[C@H](O)[C@@H](C)C(=O)[C@@H](C)[C@H](O)[C@@H](C)/C=C/C(=O)O[C@@H]2[C@H](C)[C@H](CC1)O[C@]1(CC[C@H](C)[C@H](C[C@@H](C)O)O1)[C@H]2C [oligomycin]
- effect on monovalent cation conductance ([1]; 10 oligomycin (unit not given) in bath, 125 mM K-gluconate, pH 7): little to no effect

Compound: C/C=C(\C)[C@H](O)[C@H](C)/C=C(C)/C=C/C/C(C)=C/Cc1nc(OC)c(OC)c(O)c1C [piericidin]
- effect on monovalent cation conductance ([1]; 1 μM piericidin in bath, 110 mM K-gluconate, pH 7): little to no effect

Compound: CCCCCCCCCCC(O)C1CCC(C2CCC(C(O)CCCCCCCCCCC(O)CC3=CC(C)OC3=O)O2)O1 (stereo not drawn) [rolliniastatin]
- effect on monovalent cation conductance ([1]; 2 μM rolliniastatin in bath, 125 mM K-gluconate, pH 7): little to no effect

Compound: C/C=C(C)/C=C/C=C/[C@H](OC)[C@@H](C)[C@@H](OC)[C@@H](C)CCc1oc2c(O)c(OC)cc(OC)c2c(=O)c1C [stigmatellin]
- effect on monovalent cation conductance ([1]; 0.5 μM stigmatellin in bath, 125 mM K-gluconate, pH 7): little to no effect

Compound: Tertiapin Q [TQ]
- effect on monovalent cation conductance ([1]; 0.5 μM TQ in bath, 125 mM K-gluconate, pH 7): little to no effect

Compound: antimycin
- effect on monovalent cation conductance [1, 3]: little to no effect
- uncoupling H+ current overlapping with the K+ current [1, 3]: elicited an uncoupling H^+ current

Compound: atpenin
- effect on monovalent cation conductance ([1]; 0.2 μM or 1 μM atpenin in bath, 125 mM K-gluconate, pH 7): little to no effect

Compound: bullatacin
- effect on monovalent cation conductance ([1]; 1 μM bullatacin in bath, 125 mM K-gluconate, pH 7): little to no effect
